Results as given in patent publication US20120289541A1 (NOVARTIS AG, priority 2010, published 2012).
Read-outs that look alike come from different tables or passages of the source.

Experiments:
[1] = cited from earlier work
in vitro [2] = assay: in vitro
[3] = Non-specific binding to ultrafiltration device in PBS
in vitro [4] = format: in vitro ADME; settings: bovine, pH 7.4
Description: The volume of serous middle ear fluid (MEF) that accumulates in non-infected chinchillas with Eustachian tube obstruction varies greatly. […] It became necessary to formulate an artificial middle ear fluid (AMEF) that mimics the MEF.

[5] = External ear dosing of 3% moxigel after 10% or 50% IPM pretreatment, MEF microdialysis; settings: 3% moxigel 9 mg external ear, mean

fraction unbound at 492 μg/ml (in vitro [2]): 0.75 ± 0.02
fraction unbound [3]: ~1
fraction unbound at 220 μg/ml [3]: 0.97 ± 0.026
fraction unbound at 220 μg/ml (in vitro [4]; isolated protein): 0.84 ± 0.063
fraction unbound at 492 μg/ml (in vitro [4]; isolated protein): 0.92 ± 0.013
fraction unbound (in vitro [4]): 0.84 to 0.92
Time to reach 10 μg/mL [5]: 618 min
elimination rate constant (high intrabulla dose (150 μg)): 0.0075 ± 0.0010 min⁻¹
elimination rate constant (intrabulla dosing, mean of both doses): 0.0093 min⁻¹
elimination rate constant (low intrabulla dose (50 μg)): 0.0102 ± 0.0040 min⁻¹
Compound: COc1c(N2C[C@@H]3CCCN[C@@H]3C2)c(F)cc2c(=O)c(C(=O)O)cn(C3CC3)c12 [moxifloxacin]
mean AUC ([1]; human, in vivo, po, 400 mg): 2170 µg·min/mL
concentration observed in plasma ([1]; humans, oral dose of 400 mg, Owens & Ambrose 2002): 2.0 µg/mL
total (bound plus free) maximum concentration in plasma ([1]; humans, oral dose of 400 mg): 3.1 µg/mL
